Laboratory results: US9428542B2, “Lupane triterpenoid derivatives and pharmaceutical use thereof” (priority 2012, dated 2016)

Experiments:
HIV-1IIIB = assay: HIV-1 full replication assay (HIV-1IIIB-infected MT-2 cells, supernatant read out on TZM-bl cells, β-Gal); assay type: cell-based; settings: Human immunodeficiency virus 1, MT2, 72 h, inhibiting HIV-1IIIB replication in MT-2 cells, 3 days; read-out: IC50 (PM)
Experimental: The antiviral activity of the compounds of the present invention was determined in a HIV-1 full replication assay.
In this assay, MT-2 cells that are infected with HIV-1IIIB were co-cultured with different concentration of the tested compounds for 3 days and then supernatant is transferred into new 384-well plates containing TZM-bl cells (also called JC53-bl). TZM-bl cells that could be infected by various kinds of HIV-1 strains stably express a great amount of HIV-1 receptor, co-receptor CD4 molecular, and co-receptor CXCR4 and CCR5. TZM-bl cells harbor LTR-luciferase and β-gal two report genes. The expression of luciferase and β-gal reporter directed by HIV-1 LTR can be activated by Tat protein generated after HIV infection, and the quantity of expression is proportional to the quantity of HIV-1. Compounds that interfere with virus replication in MT-2 cells, maturation of the virus, or post-entry steps in the HIV lifecycle decrease the luciferase signal or β-gal signal. In this experiment, BVM (Bevirimat, PA-457) is used as a positive control drug.
Method for Inhibiting HIV-1 Replication Assay:
The MT-2 cells are infected at a Multiciplicity (MOI) of 0.01 TCID50, and then the MT-2 cells suspension was diluted to a needed concentration. 90 μl of the MT-2 cells suspension from above was added into 384-well plates containing 10 μl of the tested compounds.
Compounds were dissolved in DMSO and tested as 11 points 3-fold serial dilutions. After addition of cells to compound plates, plates were placed to humidified 5% CO2 37 incubator for 3 days. 10 μl of cells culture supernatant from the incubated plates was transferred into new black 384-well plates.
Adjusted the TZMb1 cells concentration and 40 μl of TZMb1 cells was added into each well in the black 384-well plates. After addition of the TZMb1 cells to the black plates, black plates were placed to humidified 5% CO2 37 incubator for 24 h, then β-Gal activity was measured.
The anti viral activity %=(measured number-lowest mean number)/(highest mean number-lowest mean number)×100. The IC50 values were calculated by Median Equation and the IC curve was generated by Graphpad Prism V 5.03.
(§1) TC50 is referred to the toxicity in MT-2 cells by the compounds tested at 50% concentration; IC50 is referred to the inhibiting HIV-1IIIB replication in MT-2 cells by the compounds tested at 50% concentration; Therapeutic Index (TI)=TC50/IC50.

MT-2 cells = assay: Compounds' cytotoxicity assay in MT-2 cells (CellTiter-Glo); assay type: cell-based; design: unit not given here; settings: toxicity in MT-2 cells, 3 days
Experimental: 3. Method for Compounds' Cytotoxicity Assay:
The MT-2 cells are diluted to a needed concentration. 90 μl of the MT-2 cells suspension was added into 384-well plates containing 10 μl of the tested compounds. Compounds were dissolved in DMSO and tested as 11 points 3-fold serial dilutions. After addition of cells to compound plates, plates were placed to humidified 5% CO2 37 incubator for 3 days. The Luciferase activity was measured by CellTiter-Glo® Luminescent Cell Viability Assay kit (Promega Corp., WI, USA).
as §1

SMILES | IC50 (HIV-1IIIB) [nM] | TC50 (PM) (MT-2 cells)
CC(C)C1=C2[C@H]3CC[C@@H]4[C@@]5(C)CC[C@H](OC(=O)CC(C)(C)C(=O)O)C(C)(C)[C@@H]5CC[C@@]4(C)[C@]3(C)CC[C@@]2(Cc2nnc(-c3ccc(Cl)cc3)n2CCN)CC1=O [Compound 116-4] | 2.5 | 33
CC(C)C1=C2[C@H]3CC[C@@H]4[C@@]5(C)CC[C@H](OC(=O)CC(C)(C)C(=O)O)C(C)(C)[C@@H]5CC[C@@]4(C)[C@]3(C)CC[C@@]2([C@@H](O)c2nnc(-c3ccc(Cl)cc3)o2)CC1=O [Compound 127-1] | 1.6 | 200
CC(C)C1=C2[C@H]3CC[C@@H]4[C@@]5(C)CC[C@H](OC(=O)CC(C)(C)C(=O)O)C(C)(C)[C@@H]5CC[C@@]4(C)[C@]3(C)CC[C@@]2([C@H](O)c2nnc(-c3ccc(Cl)cc3)o2)CC1=O [Compound 127-2] | 25 | 45
CC(C)C1=C2[C@H]3CC[C@@H]4[C@@]5(C)CC[C@H](OC(=O)CC(C)(C)C(=O)O)C(C)(C)[C@@H]5CC[C@@]4(C)[C@]3(C)CC[C@@]2([C@@H](O)c2nnc(-c3ccc(Cl)cn3)o2)CC1=O [Compound 127-3] | 0.6 | 33
CC(C)C1=C2[C@H]3CC[C@@H]4[C@@]5(C)CC[C@H](OC(=O)CC(C)(C)C(=O)O)C(C)(C)[C@@H]5CC[C@@]4(C)[C@]3(C)CC[C@@]2([C@H](O)c2nnc(-c3ccc(Cl)cn3)o2)CC1=O [Compound 127-4] | 38 | 200
CC(C)C1=C2[C@H]3CC[C@@H]4[C@@]5(C)CC[C@H](OC(=O)CC(C)(C)C(=O)O)C(C)(C)[C@@H]5CC[C@@]4(C)[C@]3(C)CC[C@@]2([C@@H](O)c2nnc(-c3ncc(Cl)cn3)o2)CC1=O [Compound 127-5] | 1 | 38
CC(C)C1=C2[C@H]3CC[C@@H]4[C@@]5(C)CC[C@H](OC(=O)CC(C)(C)C(=O)O)C(C)(C)[C@@H]5CC[C@@]4(C)[C@]3(C)CC[C@@]2(c2nnc(Nc3ccc(Cl)cc3)o2)CC1=O [Compound 133-1] | 10 | 21
CC(C)C1=C2[C@H]3CC[C@@H]4[C@@]5(C)CC[C@H](OC(=O)CC(C)(C)C(=O)O)C(C)(C)[C@@H]5CC[C@@]4(C)[C@]3(C)CC[C@@]2(c2nnc(N(CCN(C)C)c3ccc(Cl)cc3)o2)CC1=O [Compound 133-2] | ≤ 0.17 | 47
CC(C)C1=C2[C@H]3CC[C@@H]4[C@@]5(C)CC[C@H](OC(=O)CC(C)(C)C(=O)O)C(C)(C)[C@@H]5CC[C@@]4(C)[C@]3(C)CC[C@@]2(Nc2nnc(-c3ccc(Cl)cc3)o2)CC1=O [Compound 141-1] | 5.5 | 26
CC(C)C1=C2[C@H]3CC[C@@H]4[C@@]5(C)CC[C@H](OC(=O)CC(C)(C)C(=O)O)C(C)(C)[C@@H]5CC[C@@]4(C)[C@]3(C)CC[C@@]2(Nc2nnc(-c3ccc(Cl)cn3)o2)CC1=O [Compound 141-2] | 0.26 | 24
CC(C)C1=C2[C@H]3CC[C@@H]4[C@@]5(C)CC[C@H](OC(=O)CC(C)(C)C(=O)O)C(C)(C)[C@@H]5CC[C@@]4(C)[C@]3(C)CC[C@@]2(Nc2nnc(-c3ncc(Cl)cn3)o2)CC1=O [Compound 141-3] | 1.7 | 22
CC(C)C1=C2[C@H]3CC[C@@H]4[C@@]5(C)CC[C@H](OC(=O)CC(C)(C)C(=O)O)C(C)(C)[C@@H]5CC[C@@]4(C)[C@]3(C)CC[C@@]2(c2cc(=O)n(-c3ccc(Cl)cc3)n2CCN)CC1=O [Compound 155-1] | 1.6 | 78
CC(C)C1=C2[C@H]3CC[C@@H]4[C@@]5(C)CC[C@H](OC(=O)CC(C)(C)C(=O)O)C(C)(C)[C@@H]5CC[C@@]4(C)[C@]3(C)CC[C@@]2(c2cc(=O)n(-c3ccc(Cl)cc3)n2CCN(C)C)CC1=O [Compound 156-1] | ≤ 0.17 | 19
